# From PubChem BioAssay (NCI)
#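 Tested at 5 concentrations; 48 h exposure; 96-well plates; endpoints linearly interpolated, else capped at highest concentration. The concentration for 50% growth inhibition is given as GI50. TGI is the concentration that stops growth completely.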
# What was measured:
# Experiment in all cases: NCI anticancer screen, dose series, 48 h
# 786-0 renal = test system: 786-0 renal
# A498 renal = test system: A498 renal
# A549 NSCLC = test system: A549 NSCLC
# ACHN renal = test system: ACHN renal
# CCRF-CEM leukemia = test system: CCRF-CEM leukemia
# DU-145 prostate = test system: DU-145 prostate
# HCC-2998 colon = test system: HCC-2998 colon
# HL-60(TB) leukemia = test system: HL-60(TB) leukemia
# HOP-62 NSCLC = test system: HOP-62 NSCLC
# HOP-92 NSCLC = test system: HOP-92 NSCLC
# HS 578T breast = test system: HS 578T breast
# HT29 colon = test system: HT29 colon
# IGROV1 ovarian = test system: IGROV1 ovarian
# KM12 colon = test system: KM12 colon
# M14 melanoma = test system: M14 melanoma
# MALME-3M melanoma = test system: MALME-3M melanoma
# MCF7 breast = test system: MCF7 breast
# MDA-MB-231 breast = test system: MDA-MB-231 breast
# MDA-MB-435 = test system: MDA-MB-435
# MOLT-4 leukemia = test system: MOLT-4 leukemia
# NCI-H226 lung = test system: NCI-H226 lung
# NCI-H460 lung = test system: NCI-H460 lung
# NCI-H522 lung = test system: NCI-H522 lung
# NCI/ADR-RES ovarian = test system: NCI/ADR-RES ovarian
# OVCAR-3 ovarian = test system: OVCAR-3 ovarian
# OVCAR-4 ovarian = test system: OVCAR-4 ovarian
# OVCAR-5 ovarian = test system: OVCAR-5 ovarian
# OVCAR-8 ovarian = test system: OVCAR-8 ovarian
# PC-3 prostate = test system: PC-3 prostate
# RXF 393 renal = test system: RXF 393 renal
# SF-268 CNS = test system: SF-268 CNS
# SF-295 CNS = test system: SF-295 CNS
# SF-539 CNS = test system: SF-539 CNS
# SK-MEL-2 melanoma = test system: SK-MEL-2 melanoma
# SK-MEL-28 melanoma = test system: SK-MEL-28 melanoma
# SK-MEL-5 melanoma = test system: SK-MEL-5 melanoma
# SK-OV-3 ovarian = test system: SK-OV-3 ovarian
# SN12C renal = test system: SN12C renal
# SNB-19 CNS = test system: SNB-19 CNS
# SNB-75 CNS = test system: SNB-75 CNS
# SW-620 colon = test system: SW-620 colon
# TK-10 renal = test system: TK-10 renal
# U251 CNS = test system: U251 CNS
# UACC-257 melanoma = test system: UACC-257 melanoma
# UACC-62 melanoma = test system: UACC-62 melanoma
# UO-31 renal = test system: UO-31 renal
# BT-549 breast = test system: BT-549 breast
# COLO 205 colon = test system: COLO 205 colon
# HCT-116 colon = test system: HCT-116 colon
# K-562 leukemia = test system: K-562 leukemia
# LOX IMVI melanoma = test system: LOX IMVI melanoma
# NCI-H23 lung = test system: NCI-H23 lung
# SR leukemia = test system: SR leukemia
smiles,measurement,setting,value
CC(=O)/C=C/c1ccc(OCc2ccc(C(C)(C)C)cc2)cc1,GI50,786-0 renal,> 1000 µM
same,TGI,786-0 renal,> 1000 µM
same,GI50,A498 renal,> 1000 µM
same,TGI,A498 renal,> 1000 µM
same,GI50,A549 NSCLC,> 1000 µM
same,TGI,A549 NSCLC,> 1000 µM
same,GI50,ACHN renal,> 1000 µM
same,TGI,ACHN renal,> 1000 µM
same,GI50,CCRF-CEM leukemia,> 1000 µM
same,TGI,CCRF-CEM leukemia,> 1000 µM
same,GI50,DU-145 prostate,> 1000 µM
same,TGI,DU-145 prostate,> 1000 µM
same,GI50,HCC-2998 colon,> 1000 µM
same,TGI,HCC-2998 colon,> 1000 µM
same,GI50,HL-60(TB) leukemia,> 1000 µM
same,TGI,HL-60(TB) leukemia,> 1000 µM
same,GI50,HOP-62 NSCLC,> 1000 µM
same,TGI,HOP-62 NSCLC,> 1000 µM
same,GI50,HOP-92 NSCLC,> 1000 µM
same,TGI,HOP-92 NSCLC,> 1000 µM
same,GI50,HS 578T breast,> 1000 µM
same,TGI,HS 578T breast,> 1000 µM
same,GI50,HT29 colon,40.7 µM
same,TGI,HT29 colon,> 1000 µM
same,GI50,IGROV1 ovarian,> 1000 µM
same,TGI,IGROV1 ovarian,> 1000 µM
same,GI50,KM12 colon,> 1000 µM
same,TGI,KM12 colon,> 1000 µM
same,GI50,M14 melanoma,> 1000 µM
same,TGI,M14 melanoma,> 1000 µM
same,GI50,MALME-3M melanoma,> 1000 µM
same,TGI,MALME-3M melanoma,> 1000 µM
same,GI50,MCF7 breast,> 1000 µM
same,TGI,MCF7 breast,> 1000 µM
same,GI50,MDA-MB-231 breast,> 1000 µM
same,TGI,MDA-MB-231 breast,> 1000 µM
same,GI50,MDA-MB-435,> 1000 µM
same,TGI,MDA-MB-435,> 1000 µM
same,GI50,MOLT-4 leukemia,> 1000 µM
same,TGI,MOLT-4 leukemia,> 1000 µM
same,GI50,NCI-H226 lung,> 1000 µM
same,TGI,NCI-H226 lung,> 1000 µM
same,GI50,NCI-H460 lung,> 1000 µM
same,TGI,NCI-H460 lung,> 1000 µM
same,GI50,NCI-H522 lung,> 1000 µM
same,TGI,NCI-H522 lung,> 1000 µM
same,GI50,NCI/ADR-RES ovarian,> 1000 µM
same,TGI,NCI/ADR-RES ovarian,> 1000 µM
same,GI50,OVCAR-3 ovarian,> 1000 µM
same,TGI,OVCAR-3 ovarian,> 1000 µM
same,GI50,OVCAR-4 ovarian,> 1000 µM
same,TGI,OVCAR-4 ovarian,> 1000 µM
same,GI50,OVCAR-5 ovarian,> 1000 µM
same,TGI,OVCAR-5 ovarian,> 1000 µM
same,GI50,OVCAR-8 ovarian,> 1000 µM
same,TGI,OVCAR-8 ovarian,> 1000 µM
same,GI50,PC-3 prostate,> 1000 µM
same,TGI,PC-3 prostate,> 1000 µM
same,GI50,RXF 393 renal,> 1000 µM
same,TGI,RXF 393 renal,> 1000 µM
same,GI50,SF-268 CNS,> 1000 µM
same,TGI,SF-268 CNS,> 1000 µM
same,GI50,SF-295 CNS,> 1000 µM
same,TGI,SF-295 CNS,> 1000 µM
same,GI50,SF-539 CNS,> 1000 µM
same,TGI,SF-539 CNS,> 1000 µM
same,GI50,SK-MEL-2 melanoma,> 1000 µM
same,TGI,SK-MEL-2 melanoma,> 1000 µM
same,GI50,SK-MEL-28 melanoma,> 1000 µM
same,TGI,SK-MEL-28 melanoma,> 1000 µM
same,GI50,SK-MEL-5 melanoma,46.5 µM
same,TGI,SK-MEL-5 melanoma,> 1000 µM
same,GI50,SK-OV-3 ovarian,> 1000 µM
same,TGI,SK-OV-3 ovarian,> 1000 µM
same,GI50,SN12C renal,> 1000 µM
same,TGI,SN12C renal,> 1000 µM
same,GI50,SNB-19 CNS,> 1000 µM
same,TGI,SNB-19 CNS,> 1000 µM
same,GI50,SNB-75 CNS,> 1000 µM
same,TGI,SNB-75 CNS,> 1000 µM
same,GI50,SW-620 colon,> 1000 µM
same,TGI,SW-620 colon,> 1000 µM
same,GI50,TK-10 renal,> 1000 µM
same,TGI,TK-10 renal,> 1000 µM
same,GI50,U251 CNS,> 1000 µM
same,TGI,U251 CNS,> 1000 µM
same,GI50,UACC-257 melanoma,> 1000 µM
same,TGI,UACC-257 melanoma,> 1000 µM
same,GI50,UACC-62 melanoma,> 1000 µM
same,TGI,UACC-62 melanoma,> 1000 µM
same,GI50,UO-31 renal,> 1000 µM
same,TGI,UO-31 renal,> 1000 µM
O=C(Nc1ccc(OCc2nnc(-c3ccc(Cl)cc3)o2)c(F)c1)c1ccc(Cl)c(C(F)(F)F)c1,GI50,786-0 renal,> 50 µM
same,TGI,786-0 renal,> 50 µM
same,GI50,A549 NSCLC,> 50 µM
same,TGI,A549 NSCLC,> 50 µM
same,GI50,ACHN renal,> 50 µM
same,TGI,ACHN renal,> 50 µM
same,GI50,BT-549 breast,> 50 µM
same,TGI,BT-549 breast,> 50 µM
same,GI50,CCRF-CEM leukemia,> 50 µM
same,TGI,CCRF-CEM leukemia,> 50 µM
same,GI50,COLO 205 colon,> 50 µM
same,TGI,COLO 205 colon,> 50 µM
same,GI50,DU-145 prostate,> 50 µM
same,TGI,DU-145 prostate,> 50 µM
same,GI50,HCC-2998 colon,> 50 µM
same,TGI,HCC-2998 colon,> 50 µM
same,GI50,HCT-116 colon,> 50 µM
same,TGI,HCT-116 colon,> 50 µM
same,GI50,HL-60(TB) leukemia,> 50 µM
same,TGI,HL-60(TB) leukemia,> 50 µM
same,GI50,HOP-62 NSCLC,> 50 µM
same,TGI,HOP-62 NSCLC,> 50 µM
same,GI50,HOP-92 NSCLC,> 50 µM
same,TGI,HOP-92 NSCLC,> 50 µM
same,GI50,HS 578T breast,> 50 µM
same,TGI,HS 578T breast,> 50 µM
same,GI50,HT29 colon,> 50 µM
same,TGI,HT29 colon,> 50 µM
same,GI50,IGROV1 ovarian,> 50 µM
same,TGI,IGROV1 ovarian,> 50 µM
same,GI50,K-562 leukemia,> 50 µM
same,TGI,K-562 leukemia,> 50 µM
same,GI50,LOX IMVI melanoma,> 50 µM
same,TGI,LOX IMVI melanoma,> 50 µM
same,GI50,M14 melanoma,> 50 µM
same,TGI,M14 melanoma,> 50 µM
same,GI50,MALME-3M melanoma,> 50 µM
same,TGI,MALME-3M melanoma,> 50 µM
same,GI50,MDA-MB-231 breast,> 50 µM
same,TGI,MDA-MB-231 breast,> 50 µM
same,GI50,MDA-MB-435,> 50 µM
same,TGI,MDA-MB-435,> 50 µM
same,GI50,MOLT-4 leukemia,> 50 µM
same,TGI,MOLT-4 leukemia,> 50 µM
same,GI50,NCI-H226 lung,> 50 µM
same,TGI,NCI-H226 lung,> 50 µM
same,GI50,NCI-H23 lung,> 50 µM
same,TGI,NCI-H23 lung,> 50 µM
same,GI50,NCI/ADR-RES ovarian,> 50 µM
same,TGI,NCI/ADR-RES ovarian,> 50 µM
same,GI50,OVCAR-3 ovarian,> 50 µM
same,TGI,OVCAR-3 ovarian,> 50 µM
same,GI50,OVCAR-4 ovarian,> 50 µM
same,TGI,OVCAR-4 ovarian,> 50 µM
same,GI50,OVCAR-5 ovarian,> 50 µM
same,TGI,OVCAR-5 ovarian,> 50 µM
same,GI50,OVCAR-8 ovarian,> 50 µM
same,TGI,OVCAR-8 ovarian,> 50 µM
same,GI50,RXF 393 renal,> 50 µM
same,TGI,RXF 393 renal,> 50 µM
same,GI50,SF-268 CNS,> 50 µM
same,TGI,SF-268 CNS,> 50 µM
same,GI50,SF-295 CNS,> 50 µM
same,TGI,SF-295 CNS,> 50 µM
same,GI50,SF-539 CNS,> 50 µM
same,TGI,SF-539 CNS,> 50 µM
same,GI50,SK-MEL-2 melanoma,> 50 µM
same,TGI,SK-MEL-2 melanoma,> 50 µM
same,GI50,SK-MEL-28 melanoma,> 50 µM
same,TGI,SK-MEL-28 melanoma,> 50 µM
same,GI50,SK-MEL-5 melanoma,> 50 µM
same,TGI,SK-MEL-5 melanoma,> 50 µM
same,GI50,SK-OV-3 ovarian,> 50 µM
same,TGI,SK-OV-3 ovarian,> 50 µM
same,GI50,SN12C renal,> 50 µM
same,TGI,SN12C renal,> 50 µM
same,GI50,SNB-19 CNS,> 50 µM
same,TGI,SNB-19 CNS,> 50 µM
same,GI50,SNB-75 CNS,> 50 µM
same,TGI,SNB-75 CNS,> 50 µM
same,GI50,SR leukemia,> 50 µM
same,TGI,SR leukemia,> 50 µM
same,GI50,SW-620 colon,> 50 µM
same,TGI,SW-620 colon,> 50 µM
same,GI50,TK-10 renal,> 50 µM
same,TGI,TK-10 renal,> 50 µM
same,GI50,U251 CNS,> 50 µM
same,TGI,U251 CNS,> 50 µM
same,GI50,UACC-257 melanoma,> 50 µM
same,TGI,UACC-257 melanoma,> 50 µM
same,GI50,UACC-62 melanoma,> 50 µM
same,TGI,UACC-62 melanoma,> 50 µM
Clc1cc(Cl)cc(-c2ccc(-c3ccc(/C=N/NC4=NCCN4)cc3)s2)c1,GI50,A498 renal,1.39 µM
same,TGI,A498 renal,5.78 µM
same,GI50,BT-549 breast,9.24 µM
same,TGI,BT-549 breast,57.4 µM
same,GI50,DU-145 prostate,1.77 µM
same,TGI,DU-145 prostate,3.2 µM
same,GI50,HS 578T breast,2.3 µM
same,TGI,HS 578T breast,6.41 µM
same,GI50,KM12 colon,1.71 µM
same,TGI,KM12 colon,3.12 µM
same,GI50,NCI-H226 lung,4.16 µM
same,TGI,NCI-H226 lung,> 100 µM
same,GI50,SF-268 CNS,1.98 µM
same,TGI,SF-268 CNS,4.67 µM
same,GI50,SF-539 CNS,1.7 µM
same,TGI,SF-539 CNS,3.07 µM
same,GI50,SK-MEL-28 melanoma,2.09 µM
same,TGI,SK-MEL-28 melanoma,4.69 µM
same,GI50,SK-MEL-5 melanoma,4.61 µM
same,TGI,SK-MEL-5 melanoma,> 100 µM
same,GI50,SNB-75 CNS,1.78 µM
same,TGI,SNB-75 CNS,7.93 µM
